In patent EP4772520A1, “NOVEL PRODRUG-TYPE ANTICANCER AGENT TARGETING CANCER-SPECIFIC ENZYME ACTIVITY” (priority 2023, dated 2025):
Values joined by “and” are separate entries in the source; they are usually repeats but may differ in a detail not shown here. Equal entries are not always repeated.

Assays:
[1] = Procedure: For the Vehicle group, a corresponding amount of DMSO was administered.
After blood was collected on day 22 and then euthanized, the liver, kidney, and spleen were taken out and their weights were compared.

[2] = Single dose toxicity test 1 (intravenous); format: in vivo, Jcl: ICR mice (female)
Procedure: Single dose toxicity was evaluated by intravenously administering 200 mg/kg each of the novel prodrug-type anticancer agents SN38-βGal and SN38-βGlcNAc to Jcl: ICR mice (female).

SHP77-luc = test: Tumor proliferation suppression test in small cell lung cancer orthotopic model; format: in vivo, mice; details: 40 mg/kg i.v. twice a week for 4 weeks
Procedure: The tumor proliferation suppression effect of the developed prodrugs SN38-βGal and SN38-βGlcNAc in a small cell lung cancer model was evaluated. The model was created by orthotopically transplanting SHP77-luc in which luciferase was expressed in a small cell lung cancer cell line SHP77 relative to BALB/cAJcl-nu/nu into the lung. The Vehicle (DMSO administration) group, the SN38-βGal administration group, and the SN38-βGlcNAc administration group were n = 6, respectively. The administration form was intravenous administration (i.v.), and the dose was 40 mg/kg, and administration was performed twice a week for 4 weeks. The tumor burden was evaluated by the luciferin/luciferase luminescence value.
A specific procedure of the therapeutic experiment is shown below. • (1) Model mice were created by the following procedure using 20 BALB/cAJcl-nu/nu (7 weeks old/female) mice. 150 to 200 µL of an anesthetic (a mixture of 3 kinds of Domitor + Betorphal + Mitazolam) was intraperitoneally administered to perform anesthesia. The skin of the left chest was incised, the subcutaneous tissue was detached, and then SHP77 luc cell suspension 2 × 10^7 cells/mL (50 µL, 5% Matrigel) was injected from the intercostal pleura to the left lung. The skin was sutured at 3 sites, and 150 to 200 µL of an anti-sedan (atipamezol) solution was intraperitoneally administered to check awakening of the mice. • (2) After 3 weeks, the formation of cancer was confirmed by luciferin/luciferase luminescence, and the administration of the drug was started. The drug was prepared by dissolving 200 mM of DMSO stock in PBS, and was administered from the tail vein in a total amount of 100 µL.3 mg (200 µL) of luciferin was intraperitoneally administered, and anesthetized with isoflurane. Thereafter, the luminescent value at 15 minutes after administration was measured by an in vivo imaging device. • (3) On the day of evaluation, the tumor burden was evaluated by the body weight and the luciferin/luciferase luminescence.

[3] = system: lung squamous carcinomas cell H226; test: Cytotoxicity test by MTT assay method (H226 cells); format: cell-based
JFCR39 cell panel = test: Cytotoxicity test using JFCR39 cell panel (sulforhodamine B); format: cell-based; details: 39 cell lines, 48 hours
Procedure: The cancer cells were seeded in a 96 well plate, and on the next day, the drug solution was added according to the dilution series, and after culturing for 2 days (48 hours), cell proliferation was determined by colorimetric assay using sulforhodamine B.
Each cancer cell was seeded in a 96 well plate, and on the next day, the drug solution was added according to the dilution series, and after culturing for 2 days (48 hours), cell proliferation was measured by colorimetric quantification with sulforhodamine B.

[4] = Evaluation of locomotion after administration of drug; format: in vivo; details: intravenous administration of 40 mg/kg, n = 4, 15 minutes from 1 minute after administration
Procedure: The momentum after drug administration was compared (n = 4).
Fig. 22 illustrates results of locomotion evaluation after drug administration. a of Fig. 22 illustrates the head movement distance for 15 minutes from 1 minute after administration in each group. The drug is administered intravenously at 40 mg/kg (n = 4). b of Fig. 22 illustrates an example of a movement trajectory for 15 minutes from 1 minute after administration in each group. c of Fig. 22 illustrates an example of a movement distance for each time from 1 minute after administration in each group.

in vivo = details: for AUC(0-t) at 6 h: AUC0-6h (μg・h/mL); for clearance: CLtot (mL/min/kg)
Text: A specific test procedure is shown below. • (1) Three marmosets (6 males in total) in each of the SN38-βGal and SN38-βGlcNAc administration groups were sequentially retained using a retention device, and a tail of the administration site was shaved. • (2) The base of the tail from the injection site was avascularized to cause blood vessels to become engorged. Veins running on both left and right sides of the tail were checked, the puncture site was disinfected with alcohol cotton, and then administration was performed with a 27 G injection needle using one of the left and right blood vessels. For administration, 1.0 mg/mL of prepared administration solution of SN38-βGal or SN38-βGlcNAc was intravenously administered at an injection rate of 350 µL/min (about 11 minutes: due to different body weight, the time τ actually required for the injection was accurately recorded for each individual) by an infusion pump at a dose of 10 mg/10 mL/kg. • (3) Immediately after the start of infusion administration, about 220 µL of blood was collected with a heparinized syringe at 5, 15, 30, 45 minutes, 1, 2, 3, and 6 hours, and centrifuged at 1200 G and 4°C for 15 minutes to collect plasma. • (4) After the plasma was dispensed into the microtube, 100 µL of the plasma was accurately taken, and a 200 µM of inhibitor N-(n-nonyl) deoxygalactonoijirimycin solution in the SN38-βGal administration group, a 200 µM of inhibitor PUGNAc solution in the SN38-βGlcNAc administration group, and 100 µL of each were added to the microtube dispensed in advance and mixed quickly.

[5] = 40 mg/kg i.v. repeated, vs Vehicle
[6] = 200 mg/kg single intravenous administration, n=10
[7] = marmoset, in vivo, iv, 10 mg/kg, prodrug, 11 min infusion, N=3, average
[8] = marmoset, in vivo, iv, 10 mg/kg, prodrug, 10 mg/kg i.v., individual marmosets
[9] = prodrug, 10 mg/kg i.v., individual marmosets, 10 mg/kg

CCc1c2c(nc3ccc(O[C@@H]4O[C@H](CO)[C@@H](O)[C@H](O)[C@H]4NC(C)=O)cc13)-c1cc3c(c(=O)n1C2)COC(=O)[C@]3(O)CC [SN38-βGlcNAc]
Histological findings in kidney ([1]; 40 mg/kg i.v. repeated): organ damage to the kidney was not observed | Histological findings in large intestine ([1]; 40 mg/kg i.v. repeated): the side effects were very mild as compared with CPT-11 | Histological findings in liver ([1]; 40 mg/kg i.v. repeated): organ damage to the liver was not observed | Histological findings in small intestine ([1]; 40 mg/kg i.v. repeated): the side effects were very mild as compared with CPT-11 | Histological findings in spleen ([1]; 40 mg/kg i.v. repeated): organ damage to the spleen was very mild | organ weight (liver, kidney, spleen) ([1]; 40 mg/kg i.v. repeated, day 22, vs Vehicle): An increase in spleen weight was observed | histological findings (organ damage) ([1]; 40 mg/kg i.v. repeated, summary): no organ damage was observed in the small intestine, large intestine, kidney, liver, and spleen | biochemical test findings [1, 5]: slight increases in urea nitrogen and creatinine were observed | blood cell test findings [1, 5]: an increase in eosinophils and a decrease in basophils were estimated | body weight loss ([1]; 40 mg/kg i.v. three times a week for three weeks, at maximum by the final day): significant body weight loss was not observed | RETICULOCYTE COUNT ([1]; blood cell classification, Average, 40 mg/kg i.v. repeated): 242300 µL⁻¹ | symptoms immediately after administration ([2]; 200 mg/kg intravenous, improved in several hours): reduced locomotor activity, tremor, and prone states were found in more than half of the mice in both groups | Survival rate (%) (after 10 days) [2, 6]: 100% | Survival rate (%) (just after administration) [2, 6]: 100% | LD50 at 240 h ([2]; mouse, in vivo, iv, single intravenous administration, estimated): ≥ 200 mg/kg | body weight (SHP77-luc): no body weight loss was found during the treatment period | tumor growth (luciferin/luciferase luminescence) (SHP77-luc; n = 6, vs Vehicle): significant suppression of tumor growth was confirmed | cytotoxicity in the presence of inhibitor ([3]; H226, 40 µM of inhibitor of β-hexosaminidase, PUGNAc): cytotoxicity was significantly reduced | IC50 ([3]; Homo sapiens, NCI-H226, 72 h, read-out: IC50 value): 1500 nM | suppression of cell proliferation (JFCR39 cell panel): suppressed proliferation of almost all cancer cells | GI50 value (JFCR39 cell panel; comparison with SN38 and CPT-11): close to SN38 and lower than CPT-11 | locomotion after drug administration [4]: these decreases in the locomotion were hardly observed | abnormalities after drug administration (in vivo; 10 mg/kg i.v.): remarkable abnormalities, vomiting, and the like were not found in any individual | AUC(0-t) at 6 h (in vivo; [7]): 78300 ng·h/mL | AUC(0-t) at 6 h (in vivo; [8]): 73500 ng·h/mL | AUC (in vivo; marmoset, in vivo, iv, 10 mg/kg, AUC0- (μg・h/mL), prodrug, 10 mg/kg i.v., individual marmosets): 73800 ng·h/mL | clearance (in vivo; [7]): 2.2 mL/min/kg | clearance (in vivo; [8]): 2.3 mL/min/kg | Vd (in vivo; marmoset, in vivo, iv, 10 mg/kg, Vd (L/kg), prodrug, 11 min infusion, N=3, average): 0.142 L/kg | Vd (in vivo; marmoset, in vivo, iv, 10 mg/kg, Vd (L/kg), prodrug, 10 mg/kg i.v., individual marmosets): 0.149 L/kg | half-life (in vivo; marmoset, in vivo, iv, 10 mg/kg, blood half-life, prodrug, 10 mg/kg i.v., 11 minutes infusion): 47.6 min | half-life (in vivo; marmoset, in vivo, iv, 10 mg/kg, t1/2 (h), prodrug, 11 min infusion, N=3, average): 47.6 min | half-life (in vivo; marmoset, in vivo, iv, 10 mg/kg, t1/2 (h), prodrug, 10 mg/kg i.v., individual marmosets): 43.9 min | CLtot (in vivo; [9]): 2.0 mL/min/kg | Vd (in vivo; [9]): 0.134 L/kg and 0.143 L/kg | t1/2 (in vivo; [9]): 49.7 min and 49.3 min | AUC0-6h (μg・h/mL) (in vivo; prodrug, 10 mg/kg i.v., individual marmosets, 10 mg/kg, 360 min): 84.34 μg・h/mL and 76.92 μg・h/mL
